Measurements published in patent publication US4194055A, “15,16-dioxy prostenoic acids and esters” (American Cyanamid Company, priority 1978, dated 1980).

Experiments:
[1] = system: basal gastric acid secretion; assay: Inhibition of gastric acid secretion in the acute gastric fistula rat; format: in vivo, Female Sprague-Dawley rats; conditions: intraduodenal
Method: The compounds of this invention are also useful as inhibitors of gastric acid secretion and peptic ulcer formation and may be used for the treatment of gastric hyperacidity, gastric erosion, and peptic ulcer. Inhibition of basal gastric acid secretion can be determined by the following procedure.
Female Sprague-Dawley rats weighing 140-160 grams are fasted in individual cages for 18-24 hours. The rats are then lightly anesthetized with ether and their front teeth extracted to avoid destruction of the plastic cannula. A midline incision is then made and the stomach and duodenum exposed. A flanged polyvinyl tube is inserted into the fundic portion of the stomach and secured with a purse string suture line using 4-O Mersilene. The rat is then dosed by injection of the compound into the duodenum (1.0 ml. per 100 gram body weight). After dosing, the abdominal wall and skin are closed using metal wound clips. The rat is replaced in a cage containing a longitudinal slit to allow the polyvinyl tube to hang freely. An 8 ml. plastic collecting tube is attached to the flanged cannula and hangs freely below the cage. The first 30 minute sample is discarded designating this time as zero. The collecting tube is attached again and samples removed at the end of 60 and 120 minutes. The hourly samples are then transferred to a 15 ml. centrifuge and centrifuged for 5-10 minutes. Total and sediment volume are then recorded with the supernatant volume being used as volume of secretion. A 1 ml. or less aliquot is then removed and placed in a 50 ml. beaker containing 10 ml. of distilled water. This sample is then titrated using 0.01 N NaOH to pH 7.0 using a Beckman zeromatic pH meter. Volume, titratable acidity (meq/L) and total acid output (ueg/hour) are recorded. Percent inhibition is determined by comparison with the appropriate control. Groups of three rats were used for preliminary testing, and groups of six rats were used for dose-response evaluations. All compounds are administered in a vehicle consisting of 0.5% methocel, 0.4% tween 80, and saline at a constant volume of 1 ml./100 gram rat. Samples are dispersed by sonification. Percent inhibition is calculated on basis of concurrent vehicle control.
In Table B which follows is given the effect on total acid output after 60 minutes (response A) and 120 minutes (response B) for various doses of representative compounds of this invention.

[2] = system: bronchospasms elicited by intravenous injections of 5-hydroxytryptamine; assay: Bronchodilator activity (Konzett assay) against 5-hydroxytryptamine; format: in vivo, guinea pigs; conditions: Cavia porcellus; three logarithmic cummulative intravenous doses; spasmogen 5-hydroxytryptamine i.v.; read-out: Bronchodilator Activity (Konzett Assays) ED50, Spasmogenic Agent 5-Hydroxytryptamine
Method: (§1) The compounds of this invention are useful as bronchodilators for the treatment of asthma and chronic bronchitis. Bronchodilator activity is determined in guinea pigs against bronchospasms elicited by intravenous injections of 5-hydroxytryptamine, histamine or acetylcholine by the Konzett procedure. [See J. Lulling, P. Lievens, F. El Sayed and J. Prignot, Arzneimittel-Forschung, 18, 955 (1968).]
(§2) In Table A which follows bronchodilator activity for representative compounds of this invention against one or more of three spasmogenic agents is expressed in an ED50 determined from the results obtained with three logarithmic cummulative intravenous doses.

[3] = system: bronchospasms elicited by intravenous injections of histamine; assay: Bronchodilator activity (Konzett assay) against histamine; format: in vivo, guinea pigs; conditions: Cavia porcellus; three logarithmic cummulative intravenous doses; spasmogen histamine i.v.; read-out: Bronchodilator Activity (Konzett Assays) ED50, Spasmogenic Agent Histamine
Method: as §1, §2

[4] = system: Mean arterial blood pressure; assay: Hypotensive activity in anesthetized normotensive rats; format: in vivo, Royalhart, Wistar strain, male; conditions: Rattus norvegicus, iv, infused over one minute, read-out: % Decrease Mean Arterial Blood Pressure
Method: The animals used are Royalhart, Wistar strain, male, normotensive rats weighing 250-300 g. The rats are anesthetized using a 100 mg./ml. saline solution of urethane at a rate of 900 mg./kg. intraperitoneally.
The instrumentation used in a Brush model 260 recorder, Statham mode P23Db pressure transducer and Harvard model 940 infusion pump with a 6 cc syringe at speed 4.
The left carotid artery is cannulated with polyethylene tubing for arterial blood pressure. The left external juglar vein is cannulated with polyethylene tubing for […] the test compound is infused over a one minute period in a volume of 0.5 ml., […] (ethanol, 1 M NaHCO3 or saline) and then flushed with 0.4 ml. of saline.
Mean arterial blood pressure is then measured in two test animals per compound against a control value.

[5] = system: bronchospasms elicited by intravenous injections of acetylcholine; assay: Bronchodilator activity (Konzett assay) against acetylcholine; format: in vivo, guinea pigs; conditions: Cavia porcellus; three logarithmic cummulative intravenous doses; spasmogen acetylcholine i.v.; read-out: Bronchodilator Activity (Konzett Assays) ED50, Spasmogenic Agent Acetylcholine
Method: as §1, §2

[6] = system: basal gastric acid secretion; assay: Inhibition of gastric acid secretion in the acute gastric fistula rat; format: in vivo, Female Sprague-Dawley rats; conditions: oral

CCCCC(OC)C(O)/C=C/C1CCC(=O)C1CCCCCCC(=O)OCC (mixture of isomers) [all racemic erythro ethyl 9-oxo-15-hydroxy-16-methoxy-13-trans-prostenoate]
% Inhibition of Total Acid Output After 60 min. ([1]; 10 mg./kg.): 43%
% Inhibition of Total Acid Output After 120 min. ([1]; 10 mg./kg.): 0%

CCCCC(O)C(O)/C=C/C1CCC(=O)C1CCCCCCC(=O)O (mixture of isomers) [all racemic erythro-9-oxo-15,16-dihydroxy-13-trans-prostenoic acid]
ED50 [2]: 0.537 mg/kg
ED50 [3]: 0.01 mg/kg

CCCCC1OC(C)(C)OC1/C=C/C1C(OC2CCCCO2)CC(=O)C1C/C=C\CCCC(=O)O (mixture of isomers) [d,l-erythro-9-oxo-11α-tetrahydropyranyloxy-15,16-isopropylidenedioxy-5-cis,13-trans-prostadienoic acid]
% Inhibition of Total Acid Output After 60 min. ([1]; 10 mg./kg.): 55%
% Inhibition of Total Acid Output After 120 min. ([1]; 10 mg./kg.): 29%

CCCCC1OC(C)(C)OC1/C=C/C1CCC(=O)C1CCCCCCC(=O)O (mixture of isomers) [d,l-erythro-9-oxo-15,16-isopropylidenedioxy-13-trans-prostenoic acid]
inhibition in vivo at 1.3 mg/kg ([4]; 1.3 mg./kg.): 63%
inhibition in vivo at 2.5 mg/kg ([4]; 2.5 mg./kg.): 21%

CCCCC(O)C(O)CCC1CCC(=O)C1CCCCCCC(=O)O (racemic) [all racemic erythro-9-oxo-15,16-dihydroxy-prostanoic acid]
% Inhibition of Total Acid Output After 60 min. ([1]; 10 mg./kg.): 56%
% Inhibition of Total Acid Output After 120 min. ([1]; 10 mg./kg.): 46%

CCCC[C@H](OC)[C@H](O)/C=C/[C@H]1C=CC(=O)[C@@H]1C/C=C\CCCC(=O)O (relative stereo) [d1-erythro-9-oxo-15-hydroxy-16-methoxy-5-cis,10,13-trans-prostatrienoic acid]
inhibition in vivo at 1.9 mg/kg [4]: 26%

CCCC[C@H](OC)[C@H](O)/C=C/[C@H]1[C@H](O)CC(=O)[C@@H]1C/C=C\CCCC(=O)O (relative stereo) [d,1-erythro-9-oxo-11α,15-dihydroxy-16-methoxy-5-cis,13-trans-prostadienoic acid]
inhibition in vivo at 1.8 mg/kg ([4]; 1.8 mg./kg.): 44%

CCCC[C@H](OC)[C@H](O)/C=C/[C@H]1CCC(=O)[C@@H]1CCCCCCC(=O)O (relative stereo) [d,1-erythro-9-oxo-15-hydroxy-16-methoxy-13-trans-prostenoic acid]
ED50 [3]: > 3.2 mg/kg
ED50 [5]: > 0.32 mg/kg
inhibition in vivo at 2.1 mg/kg [4]: 29%

CCCC[C@@H](O)[C@@H](O)/C=C/[C@H]1CCC(=O)[C@@H]1CCCCCCC(=O)OCC (relative stereo) [d,l-erythro ethyl 9-oxo-15-epi-16-dihydroxy-13-trans-prostenoate]
inhibition in vivo at 2.4 mg/kg [4]: 33%

CCCC[C@@H](OC)[C@@H](O)/C=C/[C@H]1CCC(=O)[C@@H]1CCCCCCC(=O)OCC (relative stereo) [d,l-erythro ethyl 9-oxo-15-epi-hydroxy-16-methoxy-13-trans-prostenoate]
inhibition in vivo at 2.3 mg/kg ([4]; 2.3 mg./kg.): 9%

CCCC[C@H](O)[C@H](O)/C=C/[C@H]1CCC(=O)[C@@H]1CCCCCCC(=O)O (relative stereo) [d,l-erythro-9-oxo-15,16-dihydroxy-13-trans-prostenoic acid]
% Inhibition of Total Acid Output After 60 min. ([1]; 2.5 mg./kg.): 77%
% Inhibition of Total Acid Output After 120 min. ([1]; 2.5 mg./kg.): 76%
inhibition in vivo at 2.1 mg/kg [4]: 23%

CCCC[C@@H](O)[C@@H](O)/C=C/[C@H]1CCC(=O)[C@@H]1CCCCCCC(=O)O (relative stereo) [d,l-erythro-9-oxo-15-epi,16-dihydroxy-13-trans-prostenoic acid]
% Inhibition of Total Acid Output After 60 min. ([1]; 10 mg./kg.): 0%
% Inhibition of Total Acid Output After 120 min. ([1]; 10 mg./kg.): 42%

CCCC[C@H](O)[C@H](O)/C=C/[C@H]1[C@H](O)CC(=O)[C@@H]1C/C=C\CCCC(=O)O (relative stereo) [dl-erythro-9-oxo-11α,15,16-trihydroxy-5-cis,13-trans-prostadienoic acid]
ED50 [2]: 0.024 mg/kg
% Inhibition of Total Acid Output After 60 min. ([6]; 5 mg./kg.): 86%
% Inhibition of Total Acid Output After 120 min. ([6]; 5 mg./kg.): 89%
% Inhibition of Total Acid Output After 60 min. ([1]; 10 mg./kg.): 98%
% Inhibition of Total Acid Output After 120 min. ([1]; 10 mg./kg.): 55%
ED50 [3]: 0.0098 mg/kg
ED50 [5]: 0.013 mg/kg
inhibition in vivo at 0.1 mg/kg ([4]; 0.1 mg./kg.): 6%

CCCC[C@@H](O)[C@@H](O)/C=C/[C@H]1[C@H](O)CC(=O)[C@@H]1C/C=C\CCCC(=O)O (relative stereo) [dl-erythro-9-oxo-11α,15-epi,16-trihydroxy-5-cis,13-trans-prostadienoic acid]
ED50 [2]: 1.28 mg/kg
% Inhibition of Total Acid Output After 60 min. ([6]; 10 mg./kg.): 66%
% Inhibition of Total Acid Output After 120 min. ([6]; 10 mg./kg.): 65%
% Inhibition of Total Acid Output After 60 min. ([1]; 10 mg./kg.): 100%
% Inhibition of Total Acid Output After 120 min. ([1]; 10 mg./kg.): 82%
ED50 [5]: 2.43 mg/kg
inhibition in vivo at 2 mg/kg ([4]; 2.0 mg./kg.): 57%

CCCC[C@@H](OC)[C@@H](O)/C=C/[C@H]1[C@H](O)CC(=O)[C@@H]1C/C=C\CCCC(=O)O (relative stereo) [dl-erythro-9-oxo-11α,15-epi-15-hydroxy-16-methoxy-5-cis,13-trans-prostadienoic acid]
inhibition in vivo at 1.9 mg/kg [4]: 19%

CCCC[C@@H](O)[C@@H](O)/C=C/[C@H]1C=CC(=O)[C@@H]1C/C=C\CCCC(=O)O (relative stereo) [dl-erythro-9-oxo-15-epi, 16-dihydroxy-5-cis,10,13-trans-prostatrienoic acid]
inhibition in vivo at 2.1 mg/kg [4]: 54%

CCCC[C@@H](OC)[C@@H](O)/C=C/[C@H]1CCC(=O)[C@@H]1CCCCCCC(=O)O (relative stereo) [dl-erythro-9-oxo-15-epi-hydroxy-16-methoxy-13-trans-prostenoic acid]
ED50 [2]: 7.99 mg/kg
ED50 [3]: > 3.2 mg/kg
ED50 [5]: > 3.2 mg/kg
inhibition in vivo at 2.4 mg/kg [4]: 18%

CCCC[C@@H](O)[C@@H](O)/C=C/[C@@H]1[C@@H](C/C=C\CCCC(=O)O)[C@@H](O)C[C@H]1O (relative stereo) [dl-erythro-9α,11α,15-epi,16-tetrahydroxy-5-cis,13-trans-prostadienoic acid]
inhibition in vivo at 2.2 mg/kg ([4]; 2.2 mg./kg.): 20%
